Test results: patent publication US20080103127A1, “METHODS FOR TREATING DISRUPTIVE BEHAVIOR DISORDERS” (priority 2006, published 2008)
Marks after values point to notes of the source that are not given here.

What was measured:
dominant rats = experiment: Reduction of Dominant Behavior Model (RDBM) of mania, dominant-submissive rat food competition test; format: in vivo, Sprague-Dawley rats
Description: In this study, the effects of COMPOUND #7 on dominant or submissive behavior in pairs of rats competing for food are examined. It has been shown that anti-manic drugs, including anticonvulsants, decrease dominance and antidepressant drugs reduce submissiveness. This model uses dominant behavior as a model of mania and submissive behavior as a model of depression. The dominance and submissiveness is defined in a competition test and measured as the relative success of two food-restricted rats to gain access to a feeder. Rats are randomly paired and placed in an apparatus allowing them to compete for a food reward. The dominant-submissive relationship develops over a 2-week period. The submissive or dominant animals in pairs selected after 2 weeks of training were treated orally […] (b.i.d.) with COMPOUND #7 at 3 or 30 mg/kg for 5 weeks. The partner of the drug-treated animal was treated with vehicle.
The objective of this study was to determine if COMPOUND #7 is active in the Reduction of Submissive Behavior Model (RSBM) of depression and the Reduction of Dominant Behavior Model (RDBM) of mania. Measurements were made at two doses (3 and 30 mg/kg) after oral twice a day (b.i.d.) administration. The effect of the drug in the RSBM was compared to the effect of fluoxetine (10 mg/kg) and vehicle (0.5% methylcellulose). The effect of the drug in the RDBM was compared with the effect of lithium (100 mg/kg) and vehicle (0.5% methylcellulose). The endpoints measured were the development of a significant reduction of submissive or dominant behavior and its time of onset.
The DSR developed by two rats competing for food uses the apparatus in FIG. 1. The methodology and equipment are described in several publications. (See, Malatynska E, Goldenberg R, Shuck L, Haque A, Zamecki P, Crites G, Schindler N, Knapp R J. Reduction of submissive behavior in rats: a test for antidepressant drug activity. Pharmacology 2002; 64:8; Malatynska E, Rapp R, Crites G. Dominant behavior measured in a competition test as a model of mania. In: International Behavioral Neuroscience Society Meeting, ed. IBNSCapri, Italy, 2002, p 26.; Bonnet U. Moclobemide: therapeutic use and clinical studies. CNS Drug Rev 2003; 9:97; Danysz W, Plaznik A, Kostowski W, Malatynska E, Jarbe T U, Hiltunen A J, Archer T. Comparison of desipramine, amitriptyline, zimeldine and alaproclate in six animal models used to investigate antidepressant drugs. Pharmacol Toxicol 1988; 62:42; Knapp R J, Goldenberg R, Shuck C, Cecil A, Watkins J, Miller C, Crites G, Malatynska E. Antidepressant activity of memory-enhancing drugs in the reduction of submissive behavior model. Eur J Pharmacol 2002; 440:27; Kostowski W, Malatynska E, Plaznik A, Dyr W, Danysz W. Comparative studies on antidepressant action of alprazolam in different animal models. Pol J Pharmacol Pharm 1986; 38, 471; Malatynska E, De Leon I, Allen D, Yamamura Hi. Effects of amitriptyline on GABA-stimulated ^36Cl^− uptake in relation to a behavioral model of depression. Brain Res Bull 1995; 37:53; Malatynska E, Kostowski W. The effect of antidepressant drugs on dominance behavior in rats competing for food. Pol J Pharmacol Pharm 1984; 36:531; Malatynska E, Kostowski W. Desipramine antagonizes clonidine-induced suppression of dominance in rats: possible involvement of amygdaloid nuclei. Pol J Pharmacol Pharm 1988; 40:357).
In the experiments described in this report Sprague-Dawley rats weighing 160 to 180 g were used. […]

[1] = tested on: isolation-induced aggressive behavior in pairs of mice; experiment: Isolation-induced aggression model in pairs of mice; format: in vivo, CrI:CD-1(ICR)BR albino mice
Description: The effects of test compound on the aggressive behavior of CrI:CD-1(ICR)BR albino mice were evaluated using the paradigm of isolation-induced aggression.
Male CrI:CD-1(ICR)BR albino mice, fasted overnight, were individually housed for 5 weeks in plastic cages on wood-chip bedding. Subsequently, they were paired for 1 minute daily for several days by placing one individually housed mouse (intruder) into the resident cage of another individually housed mouse (resident). The 1-minute pairing of intruder and resident mouse elicits aggressive behavior. Pairs of mice showing consistent aggressive behavior when paired for 1 minute, during several days were selected as subjects for drug testing.
Test compound (10 to 40 mg/kg p.o.) or the vehicle (methocel; aqueous 0.5%, w/v, hydroxypropyl methylcellulose solution) was administered (10 mL/kg) to the resident and intruder mouse. One and 4 hours after dosing, the mice were paired and the onset of fighting was recorded. […] The duration of fighting during a 1-minute test period was recorded. Mice were re-used in this procedure after several days to a week to allow metabolism and elimination of test compounds. The mice weighed 32 to 49 g at the time of testing and were fasted overnight before dosing. Mice were euthanized with CO2 if they were sick or injured.
Results were expressed as the median onset of fighting and median duration of fighting in vehicle and drug-treated groups. The statistical significance of an increase in the median onset or a reduction in the median duration of fighting in pairs of mice given test compound or its vehicle 1 and 4 hours after administration was determined using the nonparametric Wilcoxon test (p<0.05, 1-tailed).

[2] = 10 mg/kg p.o., 1 hour after administration
[3] = 10 mg/kg p.o., 4 hours after administration
[4] = 20 mg/kg p.o., 1 hour after administration
[5] = 20 mg/kg p.o., 4 hours after administration
[6] = 30 mg/kg p.o., 1 hour after administration
[7] = 30 mg/kg p.o., 4 hours after administration
[8] = 40 mg/kg p.o., 1 hour after administration
[9] = 40 mg/kg p.o., 4 hours after administration

NC(=O)OC[C@@H](O)c1ccccc1Cl [COMPOUND #7, carisbamate]
onset of significant decrease of dominant rat performance (time of treatment) (dominant rats; 3 mg/kg b.i.d. p.o.): 3 weeks
extent and onset of the effect on dominant rats compared with lithium (dominant rats; 3 mg/kg b.i.d. p.o. vs lithium 100 mg/kg i.p.): not significantly different
performance of dominant rats (dominant rats; 3 mg/kg b.i.d. p.o., 5 weeks, dominant rat treated, partner vehicle): decreased the performance
onset of increased competitiveness of dominant rats (time of treatment) (dominant rats; 30 mg/kg b.i.d. p.o.): 2 weeks
competitiveness of dominant rats compared to water treated dominant rats (dominant rats; 30 mg/kg b.i.d. p.o., 5 weeks, dominant rat treated): significantly increased the competitiveness
Median Duration of isolation-induced fighting [1, 2]: 28 s
Median Onset of isolation-induced fighting [1, 2]: 5 s
Median Duration of isolation-induced fighting [1, 3]: 6 s
Median Onset of isolation-induced fighting [1, 3]: 4 s
Median Duration of isolation-induced fighting [1, 4]: 20 s
Median Onset of isolation-induced fighting [1, 4]: 11 s
Median Duration of isolation-induced fighting [1, 5]: 26 s
onset of initiation of fighting compared to vehicle-treated group [1, 5]: significantly shortened
Median Duration of isolation-induced fighting [1, 6]: 18 s
Median Onset of isolation-induced fighting [1, 6]: 14 s
Median Duration of isolation-induced fighting [1, 7]: 9.5 s
Median Onset of isolation-induced fighting [1, 7]: 4 s
Median Duration of isolation-induced fighting [1, 8]: 0.5^b sec
Median Onset of isolation-induced fighting [1, 8]: 40 s
isolation-induced aggressive behavior in pairs of mice ([1]; 40 mg/kg p.o., 1 hour after administration, p<0.05): statistically significantly inhibited
Median Duration of isolation-induced fighting [1, 9]: 20 s
Median Onset of isolation-induced fighting [1, 9]: 17 s
median duration of fighting compared to vehicle-treated groups ([1]; any group (10 to 40 mg/kg p.o.), 4 hours after administration): not affected
